Laboratory results as given in ChEMBL document CHEMBL1133076, “The design, synthesis and activity of non-ATP competitive inhibitors of pp60(c-src) tyrosine kinase. Part 1: hydroxynaphthalene derivatives” (Bioorg Med Chem Lett, 2000).
Active and inactive are the calls of the source.

Biological target: T1, Proto-oncogene tyrosine-protein kinase Src (Homo sapiens, UniProt P12931)
Experiment: Inhibition of human purified recombinant pp60c-src tyrosine kinase at 100 uM

T1 sequence (P12931 2-536 limits assumed): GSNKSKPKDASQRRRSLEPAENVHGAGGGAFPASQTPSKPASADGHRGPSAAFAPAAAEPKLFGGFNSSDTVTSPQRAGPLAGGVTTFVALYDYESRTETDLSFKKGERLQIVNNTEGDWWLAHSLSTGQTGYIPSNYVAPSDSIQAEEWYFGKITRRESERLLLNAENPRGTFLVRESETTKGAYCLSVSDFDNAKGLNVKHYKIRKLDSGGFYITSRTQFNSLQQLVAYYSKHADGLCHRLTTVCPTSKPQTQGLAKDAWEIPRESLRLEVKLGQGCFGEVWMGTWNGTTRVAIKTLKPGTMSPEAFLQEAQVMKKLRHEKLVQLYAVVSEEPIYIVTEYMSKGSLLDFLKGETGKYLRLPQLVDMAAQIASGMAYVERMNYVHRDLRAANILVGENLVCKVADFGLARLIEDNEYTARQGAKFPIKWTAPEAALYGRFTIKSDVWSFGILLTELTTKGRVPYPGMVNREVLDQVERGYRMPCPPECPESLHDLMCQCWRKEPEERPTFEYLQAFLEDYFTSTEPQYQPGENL

Compound | inhibition [%]
COC(=O)c1cc2cccc(O)c2cc1O | 5
COc1cccc(NC(=O)c2cc3cccc(O)c3cc2O)c1 | 33
COc1ccc(NC(=O)c2cc3cccc(O)c3cc2O)cc1 | 35
O=C(NCc1ccccc1O)c1cc2ccc(O)cc2cc1O | 42
O=C(NCc1cccc(O)c1)c1cc2ccc(O)cc2cc1O | 55
Cc1cc(O)c2c(c1)C(=O)c1cc(O)cc(O)c1C2=O | 22
O=C(Nc1ccccc1O)c1cc2cccc(O)c2cc1O | 12
O=C(Nc1ccc(O)cc1)c1cc2ccc(O)cc2cc1O | 23
COc1ccccc1CNC(=O)c1cc2cccc(O)c2cc1O | 13
O=C(Nc1ccccc1O)c1cc2ccc(O)cc2cc1O | 39
COC(=O)c1cc2ccc(O)cc2cc1O | 47
COc1ccc(CNC(=O)c2cc3cccc(O)c3cc2O)cc1 | 14
O=C(Nc1cccc(O)c1)c1ccc2cc(O)ccc2c1 | 45
O=C(Nc1ccc(O)cc1O)c1cc2cccc(O)c2cc1O | 14
O=C(Nc1cccc(O)c1)c1cc2cccc(O)c2cc1O | 51
O=C(Nc1cccc(O)c1)c1cc2ccc(O)cc2cc1O | 89
O=C(NCc1ccc(O)cc1)c1cc2ccc(O)cc2cc1O | 42

Biological target: T1, Proto-oncogene tyrosine-protein kinase Src
Experiment: Inhibition of human purified recombinant p60 c-Src tyrosine kinase at 100 uM

Compound | inhibition [%]
Oc1cc(O)cc(/C=C/c2ccc(O)c(O)c2)c1 | 41
O=C(NCc1ccc(O)cc1)c1cc2cccc(O)c2cc1O | 49
O=C(NCc1ccccc1O)c1cc2cccc(O)c2cc1O | 41

Biological target: T1, Proto-oncogene tyrosine-protein kinase Src
Experiment: nhibition of human purified recombinant pp60c-src tyrosine kinase at 100 uM (Inactive)

Compound | inhibition
COC(=O)c1cc2ccccc2cc1N | inactive
COc1ccccc1CNC(=O)c1cc2ccc(O)cc2cc1O | inactive

Biological target: T1, Proto-oncogene tyrosine-protein kinase Src
Experiment: Inhibition of human purified recombinant pp60c-src tyrosine kinase

Compound | IC50 [µM]
O=C(Nc1cccc(O)c1)c1cc2cccc(O)c2cc1O | 150
